Data from patent EP1266659A1, “Pyridoxal in combination with serotonin re-uptake inhibitor for the treatment of hot flushes” (Pantarhei Bioscience B.V., priority 2001, dated 2002).
Where a name gives a salt, the structure may show the parent alone.

Test system: peri-menopausal women experiencing at least 40-50 hot flushes per week
Experimental: A clinical study is conducted with 12 peri-menopausal women experiencing at least 40-50 hot flushes per week.
The study is designed as a so called double blind, cross-over study. During the study the medication is orally administered once a day. The visual aspects of the medication used is always the same, i.e. these aspects offer no clues as to the nature of the medication. The volunteers are asked to record the number of hot flushes they experience in a dairy (at least 1 entry per day).
During an initial period of 56 days (days 1-56), all 12 participants receive the same medication, i.e. 20 mg Fluoxetine HCl. Subsequently, the twelve women are randomly divided into two groups, i.e. group A with six women and group B with six women.

Compound: CNCCC(Oc1ccc(C(F)(F)F)cc1)c1ccccc1 (stereo not drawn) [Fluoxetine HCl]
- number of hot flushes experienced per day (all 12 participants, 20 mg Fluoxetine HCl orally once a day, days 1-56): decreases substantially over time
- number of hot flushes (group A, 5mg Fluoxetine HCl + placebo orally once a day, days 169-281 (after the combination with vitamin B6)): increases again over time
- daily number of hot flushes experienced (group B, 5mg Fluoxetine HCl + placebo orally once a day, days 57-168 (after 20 mg Fluoxetine HCl)): increases over time
